Data set [1] concerns Puccinia recondita f. sp. tritici. Description: Fungicidal activity against Puccinia recondita f. sp. tritici / wheat / leaf disc curative (brown rust). Format: in vivo. Conditions: foliar, 200 ppm in the applied formulation, wheat leaf segments cv. Kanzler, curative (applied 1 day after inoculation), assessed 6 to 8 days after application, read-out: disease control compared to untreated control leaf disks. The essentials: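 Curative test: compound, diluted from DMSO stock into water, applied one day after spore inoculation of wheat (cv. Kanzler) leaf segments kept on agar in darkness at 19° C. and 75% RH. Climate-cabinet incubation (19° C., 75% RH, 12 h photoperiod); disease control relative to untreated read 6–8 days post-application.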

Data set [2] has as its system Glomerella laqenarium (Colletotrichum lagenarium). Description: Fungicidal activity against Glomerella lagenarium (Colletotrichum lagenarium) liquid culture / cucumber / preventative (anthracnose). Format: cell-based. Conditions: Colletotrichum orbiculare; 20 ppm in the applied formulation; liquid culture in PDB, 24° C., 3 to 4 days after application; read-out: disease control compared to untreated control (inhibition of growth measured photometrically). The essentials:
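Test compound, applied from DMSO solution, is combined with PDB containing conidia taken from cryogenic storage. After 3–4 days at 24 °C, growth is measured photometrically and antifungal activity expressed as percent relative to untreated control.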

The test system of another data set is Uromyces viciae-fabae. In words: Fungicidal activity against Uromyces viciae-fabae / field bean / leaf disc preventative (faba-bean rust). The data set is classed as in vivo. Conditions: foliar, 288 h, 100 ppm in the applied formulation, field bean leaf discs, preventative (inoculated two hours after application), assessed 12 days after application, read-out: disease control compared to untreated control leaf discs. In a few lines: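 Field bean leaf discs on water agar treated with 10 μl compound in acetone plus spreader, then spray-inoculated on the lower surface with Uromyces viciae-fabae spores 2 h later. Incubation at 22 °C, 18 h day, 70% RH; percent disease control versus untreated scored 12 days after application, compounds at 100 ppm.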

The subject of data set [3] is Puccinia recondita f. sp. tritici. In words: Fungicidal activity against Puccinia recondita f. sp. tritici / wheat / leaf disc preventative (brown rust). The note with it: foliar, 200 ppm in the applied formulation, wheat leaf segments cv. Kanzler, preventative (inoculated 1 day after application), assessed 7 to 9 days after application, read-out: disease control compared to untreated control leaf disks. Format: in vivo. In a few lines:
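Preventative leaf-segment test: compound sprayed at 200 ppm onto wheat (cv. Kanzler) segments, brown rust spores applied 1 day after. Kept at 19C and 75% rh under 12 h light/dark cycles; disease control versus untreated check read 7 to 9 days post-application.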

Another data set deals with Phakopsora pachyrhizi. In words: Fungicidal activity against Phakopsora pachyrhizi / soybean / leaf disc preventative (Asian soybean rust). The data set is classed as in vivo. Conditions: foliar, 200 ppm in the applied formulation, soybean leaf disks, preventative (inoculated one day after application), assessed 12 to 14 days after application, read-out: disease control compared to untreated control leaf disks. The essentials: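 Preventative test: compound applied to soybean leaf discs a day before spore inoculation of the lower surface. Discs kept at 20° C and 75% rh, first 24-36 h in darkness, then under 12 h light/day; disease control relative to untreated discs rated 12 to 14 days post-application.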

Broadly, the melting point is the temperature, or range, at which the solid turns liquid. As a reminder, the inhibition is the change of the read-out against control, counted positive when it falls.

The structures appear in SMILES notation.

In turn, `COCCNC(=O)c1ccc(-c2noc(C(F)(F)F)n2)cc1F` [Compound 3b.6, 2-fluoro-N-(2-methoxyethyl)-4-[5-(trifluoromethyl)-1,2,4-oxadiazol-3-yl]benzamide] showed a melting point of 87.6 to 89 °C. Besides, the pest or weed control at 200 ppm in data set [1] was not below 80%. Besides, the inhibition at 20 ppm in data set [2] is not below 80%. In addition, in the data set with Uromyces viciae-fabae, the pest or weed control at 100 ppm was not below 80%. For the same molecule, the pest or weed control at 200 ppm in data set [3] was not below 80%. For the same molecule, the pest or weed control at 200 ppm in the data set with Phakopsora pachyrhizi is not below 80%.
Take `C#CC(C)(C)NC(=O)c1ccc(-c2noc(C(F)(F)F)n2)cc1F` [Compound 3b.8, N-(1,1-dimethylprop-2-ynyl)-2-fluoro-4-[5-(trifluoromethyl)-1,2,4-oxadiazol-3-yl]benzamide]: the melting point was in the range of 69.2 to 69.7 °C. Moreover, in data set [1], the pest or weed control at 200 ppm was not below 80%. In addition, the inhibition at 20 ppm in data set [2] is not below 80%. The pest or weed control at 100 ppm with Uromyces viciae-fabae was not below 80%. Also, in data set [3], the pest or weed control at 200 ppm was not below 80%. Further, the pest or weed control at 200 ppm in the data set with Phakopsora pachyrhizi is not below 80%.
In turn, `Cc1ccccc1CNC(=O)c1ccc(-c2noc(C(F)(F)F)n2)cc1` [Compound 4a.4, N-(o-tolylmethyl)-4-[5-(trifluoromethyl)-1,2,4-oxadiazol-3-yl]benzamide] came in with a melting point of 135 to 141 °C. In addition, the pest or weed control at 200 ppm in data set [1] is not below 80%. In addition, in data set [2], the inhibition at 20 ppm is not below 80%. Besides, the pest or weed control at 100 ppm in the data set on Uromyces viciae-fabae was not below 80%. In addition, the pest or weed control at 200 ppm in data set [3] is not below 80%. In the data set with Phakopsora pachyrhizi, the pest or weed control at 200 ppm is not below 80%.
With `CC(NC(=O)c1ccc(-c2noc(C(F)(F)F)n2)cc1)c1ccccc1` (stereo not drawn) [Compound 4a.5, N-(1-phenylethyl)-4-[5-(trifluoromethyl)-1,2,4-oxadiazol-3-yl]benzamide], the melting point lay within 144 to 148 °C. Besides, the pest or weed control at 200 ppm in data set [1] is not below 80%. Besides, in data set [2], the inhibition at 20 ppm is not below 80%. For the same molecule, the pest or weed control at 100 ppm in the data set with Uromyces viciae-fabae is not below 80%. For the same molecule, the pest or weed control at 200 ppm in data set [3] was not below 80%. Moreover, the pest or weed control at 200 ppm in the data set with Phakopsora pachyrhizi is not below 80%.
Regarding `CN(C(=O)c1ccc(-c2noc(C(F)(F)F)n2)cc1)c1ncn[nH]1` [Compound 5a.5, N-methyl-N-(1H-1,2,4-triazol-5-yl)-4-[5-(trifluoromethyl)-1,2,4-oxadiazol-3-yl]benzamide], the melting point was in the range of 125 to 128 °C. In addition, in data set [1], the pest or weed control at 200 ppm was not below 80%. Moreover, the inhibition at 20 ppm in data set [2] was not below 80%. The pest or weed control at 100 ppm in the data set with Uromyces viciae-fabae is not below 80%. In addition, in data set [3], the pest or weed control at 200 ppm was not below 80%. Also, the pest or weed control at 200 ppm with Phakopsora pachyrhizi was not below 80%.
In turn, `O=C(NCc1cnc(Cl)s1)c1ccc(-c2noc(C(F)(F)F)n2)cc1F` [Compound 5b.14, N-[(2-chlorothiazol-5-yl)methyl]-2-fluoro-4-[5-(trifluoromethyl)-1,2,4-oxadiazol-3-yl]benzamide] had a melting point of 127.8 to 130.8 °C. For the same molecule, the pest or weed control at 200 ppm in data set [1] was not below 80%. The inhibition at 20 ppm in data set [2] was not below 80%. Also, the pest or weed control at 100 ppm with Uromyces viciae-fabae is not below 80%. In addition, the pest or weed control at 200 ppm in data set [3] is not below 80%. Also, in the data set with Phakopsora pachyrhizi, the pest or weed control at 200 ppm was not below 80%.
For `Cc1nc(CN(C)C(=O)c2ccc(-c3noc(C(F)(F)F)n3)cc2F)cs1` [Compound 5b.15, 2-fluoro-N-methyl-N-[(2-methylthiazol-4-yl)methyl]-4-[5-(trifluoromethyl)-1,2,4-oxadiazol-3-yl]benzamide], the melting point is 96.3 to 98.4 °C. Further, the pest or weed control at 200 ppm in data set [1] is not below 80%. In addition, the inhibition at 20 ppm in data set [2] was not below 80%. The pest or weed control at 100 ppm with Uromyces viciae-fabae was not below 80%. In addition, the pest or weed control at 200 ppm in data set [3] is not below 80%. Further, the pest or weed control at 200 ppm in the data set with Phakopsora pachyrhizi is not below 80%.
For `N#CC(NC(=O)c1ccc(-c2noc(C(F)(F)F)n2)cc1F)c1cccs1` (stereo not drawn) [Compound 5b.20, N-[cyano(2-thienyl)methyl]-2-fluoro-4-[5-(trifluoromethyl)-1,2,4-oxadiazol-3-yl]benzamide], the melting point lay in the range of 138.1 to 139.2 °C. The pest or weed control at 200 ppm in data set [1] is not below 80%. Besides, in data set [2], the inhibition at 20 ppm is not below 80%. Moreover, the pest or weed control at 100 ppm in the data set with Uromyces viciae-fabae is not below 80%. The pest or weed control at 200 ppm in data set [3] was not below 80%. In addition, the pest or weed control at 200 ppm with Phakopsora pachyrhizi is not below 80%.
